Source: BindingDB's records for PubMed 11916140 (Universit&Agrave, 2001)

Legend:
Assay in all cases: Inhibition Assay
Conditions in all cases: pH 7.4; 25 °C
Carbonic anhydrase 4 = target: T1, Carbonic anhydrase 4 (Bos taurus, UniProt Q95323)
T1 sequence (Q95323 whole entry): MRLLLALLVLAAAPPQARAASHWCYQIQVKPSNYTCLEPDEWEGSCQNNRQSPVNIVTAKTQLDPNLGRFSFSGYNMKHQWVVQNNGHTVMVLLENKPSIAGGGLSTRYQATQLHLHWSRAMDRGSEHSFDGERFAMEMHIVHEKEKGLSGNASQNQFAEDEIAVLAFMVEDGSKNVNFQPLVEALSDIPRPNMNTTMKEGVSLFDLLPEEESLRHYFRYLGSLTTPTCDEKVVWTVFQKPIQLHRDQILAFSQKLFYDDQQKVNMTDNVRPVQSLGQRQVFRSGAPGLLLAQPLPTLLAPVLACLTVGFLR
Excerpt: (§1) Inhibition assay using human Carbonic anhydrase I and II and bovine carbonic anhydrase IV.

Carbonic anhydrase 1 = Carbonic anhydrase 1 (Homo sapiens, UniProt P00915)
Excerpt: as §1

Carbonic anhydrase 2 = Carbonic anhydrase 2 (Homo sapiens, UniProt P00918)
Excerpt: as §1

Chain of Carbonic anhydrase 1 (P00915 whole entry): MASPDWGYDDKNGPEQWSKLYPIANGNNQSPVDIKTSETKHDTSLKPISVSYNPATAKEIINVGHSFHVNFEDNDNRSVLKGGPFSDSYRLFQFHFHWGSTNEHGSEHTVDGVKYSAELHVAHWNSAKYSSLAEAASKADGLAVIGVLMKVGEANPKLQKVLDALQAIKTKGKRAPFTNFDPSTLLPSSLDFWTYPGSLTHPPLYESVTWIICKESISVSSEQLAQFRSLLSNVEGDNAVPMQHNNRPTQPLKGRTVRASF

Row | Structure (SMILES) | Ki (Carbonic anhydrase 4) [nM] | Ki (Carbonic anhydrase 1) [nM] | Ki (Carbonic anhydrase 2) [nM]
1 | NS(=O)(=O)OCc1csc(-c2ccc(S(=O)(=O)c3ccc(Br)cc3)cc2)n1 [2-[4-(4-Bromophenylsulfonyl)-Phenyl}-thiazole-4-yl-methyl-sulfamate, 3c] | 54 | > 1000 | 21
2 | NS(=O)(=O)NCc1csc(-c2ccc(S(=O)(=O)c3ccc(Cl)cc3)cc2)n1 [2-[4-(4-Chlorophenylsulfonyl)-Phenyl}-thiazole-4-yl-methyl-sulfamide, 2b] | 65 | > 1000 | 24
3 | NS(=O)(=O)NCc1csc(-c2ccc(S(=O)(=O)c3ccc(Br)cc3)cc2)n1 [2-[4-(4-Bromophenylsulfonyl)-Phenyl}-thiazole-4-yl-methyl-sulfamide, 2c] | 50 | > 1000 | 16
4 | NS(=O)(=O)NCc1csc(-c2ccc(S(=O)(=O)c3ccccc3)cc2)n1 [2-[4-(Phenylsulfonyl)-Phenyl}-thiazole-4-yl-methyl-sulfamide, 2a] | 83 | > 1000 | 28
5 | NS(=O)(=O)OCc1csc(-c2ccc(S(=O)(=O)c3ccc(Cl)cc3)cc2)n1 [2-[4-(4-Chlorophenylsulfonyl)-Phenyl}-thiazole-4-yl-methyl-sulfamate, 3b] | 66 | > 1000 | 30
6 | NS(=O)(=O)OCc1csc(-c2ccc(S(=O)(=O)c3ccccc3)cc2)n1 [2-[4-(Phenylsulfonyl)-Phenyl}-thiazole-4-yl-methyl-sulfamate, 3a] | 87 | > 1000 | 33
